# Assay results from publication PMC10342533, “Novel Tetrazole Derivatives Targeting Tubulin Endowed with Antiproliferative Activity against Glioblastoma Cells” (International Journal of Molecular Sciences, 2023).
# Assays:
# [1] = Aqueous solubility, shake-flask method, phosphate buffer pH 7.4; format: physicochemical; details: thermodynamic from solid, phosphate buffer pH 7.4, shake-flask, mean ± SD of three experiments
# Description: The aqueous solubility of tetrazole derivatives was determined by the shaking flask methodology in phosphate buffer at pH 7.4, microfiltration, and quantification of the saturated solutions via UV spectroscopy. […] The introduction of polar groups on the 3-indole position was favorable since the most soluble compounds were the oximes 16–19 (38–53 µg/mL), followed by the carbaldehyde series 12–15 (33–45 µg/mL), and the carbonitrile derivatives (25–40 µg/mL), whereas the unsubstituted indoles 8–11 were the least soluble series (19–35 µg/mL).
# The aqueous solubility of the compounds was determined using the saturation shake-flask method. First, calibration lines at the maximum wavelength of absorbance were determined for each compound. Then, 5 mg of each compound was suspended in 500 µL of pH 7.4 buffer, and the resulting mixture was shaken for 72 h at room temperature and filtrated over a […] filter to remove the insoluble fraction. The concentration of the compound in the supernatant (saturated solution) was determined by measuring UV absorbance at the maximum wavelength of absorbance and interpolation in the calibration line. A Helios Alfa Spectrophotometer was used for the UV measurements. The aqueous solubility values are given as the average of three independent experiments.
# [2] = system: HeLa (cervix epithelioid carcinoma); assay: Cell growth inhibition, MTT assay, HeLa; format: cell-based; details: Homo sapiens
# Description: (§1) The ability of the synthesized compounds to inhibit the cell proliferation of human cancer cell lines was assayed by measuring cell viability through the use of the MTT method 72 h after treatment. For this purpose, representative cell lines of the most frequent kinds of cancer were selected, including the following: HeLa (cervix epithelioid carcinoma), MCF7 (breast adenocarcinoma), U87 MG (glioblastoma), T98G (temozolomide resistant glioblastoma), HepG2 (hepatocellular carcinoma), HCT8 (colorectal carcinoma), and HT-29 (colon adenocarcinoma).
# (§2) The cell lines were obtained from ATTC (Manassas, VA, USA). […] The cells were periodically tested for Mycoplasma infection by using a MycoAlert kit (Lonza, Norwest, Australia), and only Mycoplasma-free cells were used in the experiments.
# (§3) Then, every compound was added (10 µL/well) to a final concentration of 10 µM. Untreated cells were used as negative controls. The antiproliferative activity of compounds was measured 72 h after drug exposure through the MTT assay. […] For this purpose, compounds were used at different concentrations, ranging from 10^−10 to 10^−2 M. Measurements were performed in triplicate, and each experiment was repeated three times. The IC50 values were determined using Origin software (version 9.6, OriginLab, Washington, DC, USA).
# [3] = system: MCF7 (breast adenocarcinoma); assay: Cell growth inhibition, MTT assay, MCF7; format: cell-based; details: Homo sapiens
# Description: as §1, §2, §3
# U87 MG (glioblastoma) = assay: Cell growth inhibition, MTT assay, U87 MG; format: cell-based; details: Homo sapiens, U-87 MG
# Description: as §1, §2, §3
# [4] = system: T98G (temozolomide resistant glioblastoma); assay: Cell growth inhibition, MTT assay, T98G; format: cell-based; details: Homo sapiens
# Description: as §1, §2, §3
# [5] = system: HepG2 (hepatocellular carcinoma); assay: Cell growth inhibition, MTT assay, HepG2; format: cell-based; details: Homo sapiens
# Description: as §1, §2, §3
# [6] = system: HCT8 (colorectal carcinoma); assay: Cell growth inhibition, MTT assay, HCT8; format: cell-based; details: Homo sapiens
# Description: as §1, §2, §3
# [7] = system: HT-29 (colon adenocarcinoma); assay: Cell growth inhibition, MTT assay, HT-29, without or with verapamil; format: cell-based, human
# Description: as §1
# Multidrug resistance (MDR) proteins, especially P-glycoprotein (P-gp), are often involved in resistance mechanisms affecting tubulin-binding drugs that are frequently related to the failure of cancer therapies. […] These pumps are also part of the blood–brain barrier.
# as §2, §3
# [8] = system: HEK-293 (embryonic kidney); assay: Cell growth inhibition, MTT assay, non-tumor HEK-293; format: cell-based; details: Homo sapiens
# Description: The ability of the synthesized compounds to inhibit the cell proliferation of human cancer cell lines was assayed by measuring cell viability through the use of the MTT method 72 h after treatment. For this purpose, representative cell lines of the most frequent kinds of cancer were selected, including the following: HeLa (cervix epithelioid carcinoma), MCF7 (breast adenocarcinoma), U87 MG (glioblastoma), T98G (temozolomide resistant glioblastoma), HepG2 (hepatocellular carcinoma), HCT8 (colorectal carcinoma), and HT-29 (colon adenocarcinoma). […] The compounds were also tested against the non-tumor HEK-293 cells to study their selectivity toward cancer cells. […] The cell lines were obtained from ATTC (Manassas, VA, USA). […] The cells were periodically tested for Mycoplasma infection by using a MycoAlert kit (Lonza, Norwest, Australia), and only Mycoplasma-free cells were used in the experiments. […] Louis, MO, USA), which was dissolved in PBS at 5 mg/mL in accordance with the manufacturer's instructions. […] Untreated cells were used as negative controls. The antiproliferative activity of compounds was measured 72 h after drug exposure through the MTT assay. […] For this purpose, compounds were used at different concentrations, ranging from 10^-10 to 10^-2 M. Measurements were performed in triplicate, and each experiment was repeated three times. The IC50 values were determined using Origin software (version 9.6, OriginLab, Washington, DC, USA).
# [9] = molecular target: T1, microtubular protein isolated from calf brains (bovine brain tubulin) (Bos taurus, UniProt P81947+Q6B856); assay: Tubulin polymerization inhibition (TPI); format: biochemical; details: in vitro tubulin polymerization, mean ± SD
# T1 construct: from tissue; host or cells: calf (bovine) brain
# Description: We evaluated the capacity of the new synthesized compounds to inhibit the polymerization of microtubular protein isolated from calf brains. The assays were performed by taking absorbance measurements to quantify the amount of polymer mass formed in the presence (or absence; negative controls) of the compounds.
# Bovine brain tubulin was isolated as previously described by following a modified version of the Shelanski method. The protein was stored at −80 °C, and its concentration was determined by employing the Bradford method before each use. […] Tubulin polymerization, caused when heating the samples, was accompanied by an increase in the absorbance (at 450 nm) of the sample that was monitored by using a Helios α spectrophotometer. […] Measurements were performed in triplicate in two independent experiments using microtubular proteins from different preparations.
# [10] = HCT-8, 72 h after drug exposure
# [11] = Homo sapiens, HT-29, 72 h after drug exposure
# [12] = Homo sapiens, HT-29, mean ± SD, Table S1
# [13] = mean ± SD, Table S1, in the presence of verapamil (10 µM)
# [14] = HEK293, 72 h, non-tumorigenic cell line
# [15] = HEK293, heading: IC50 HEK-293, mean ± SD, Table S1, non-tumorigenic cell line
# T1 sequence (Q6B856 whole entry): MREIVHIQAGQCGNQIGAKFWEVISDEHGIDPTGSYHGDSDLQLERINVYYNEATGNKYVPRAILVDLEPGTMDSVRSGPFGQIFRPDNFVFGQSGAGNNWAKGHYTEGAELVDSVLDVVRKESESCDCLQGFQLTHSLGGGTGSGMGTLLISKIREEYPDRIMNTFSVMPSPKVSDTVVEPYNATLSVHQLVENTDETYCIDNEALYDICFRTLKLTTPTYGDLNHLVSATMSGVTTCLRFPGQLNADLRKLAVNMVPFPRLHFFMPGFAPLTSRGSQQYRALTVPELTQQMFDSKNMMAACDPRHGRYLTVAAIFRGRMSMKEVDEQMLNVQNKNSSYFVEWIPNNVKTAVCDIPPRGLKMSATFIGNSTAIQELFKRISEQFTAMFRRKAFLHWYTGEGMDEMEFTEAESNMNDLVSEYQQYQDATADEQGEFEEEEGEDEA
# T1 sequence (P81947 whole entry): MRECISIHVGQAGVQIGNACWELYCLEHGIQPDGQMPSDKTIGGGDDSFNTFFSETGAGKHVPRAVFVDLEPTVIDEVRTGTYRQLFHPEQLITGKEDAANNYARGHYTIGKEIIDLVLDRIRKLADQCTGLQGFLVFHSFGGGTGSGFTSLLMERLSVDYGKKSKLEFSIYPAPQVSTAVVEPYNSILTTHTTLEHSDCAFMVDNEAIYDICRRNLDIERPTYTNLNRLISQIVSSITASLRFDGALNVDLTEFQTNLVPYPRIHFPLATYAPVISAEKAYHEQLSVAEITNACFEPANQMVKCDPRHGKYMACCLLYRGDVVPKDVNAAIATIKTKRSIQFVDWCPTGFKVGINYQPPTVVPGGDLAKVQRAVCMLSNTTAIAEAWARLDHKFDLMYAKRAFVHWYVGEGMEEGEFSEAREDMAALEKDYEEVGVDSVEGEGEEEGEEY
smiles,measurement,setting,value
"CSc1cc(-c2nnnn2-c2ccc3c(ccn3C)c2)cc(SC)n1 [Compound 11, 5-(5-(2,6-bis(methylsulfanyl)pyridin-4-yl)-1H-tetrazol-1-yl)-1-methyl-1H-indole]",solubility at 72 h,[1],0.0307 ± 0.0003 mg/mL
same,IC50,[2]; 72 h after drug exposure,0.233 µM
same,IC50,"[2]; mean ± SD, Table S1",0.2331 ± 0.0014 µM
same,IC50,[3]; 72 h after drug exposure,0.24 µM
same,IC50,"[3]; mean ± SD, Table S1",0.2402 ± 0.002 µM
same,IC50,U87 MG (glioblastoma); 72 h after drug exposure,0.209 µM
same,IC50,"U87 MG (glioblastoma); mean ± SD, Table S1",0.2093 ± 0.0019 µM
same,IC50,"[4]; 72 h, 72 h after drug exposure",0.219 µM
same,IC50,"[4]; mean ± SD, Table S1",0.219 ± 0.0022 µM
same,IC50,[5]; 72 h after drug exposure,0.227 µM
same,IC50,"[5]; mean ± SD, Table S1",0.227 ± 0.0025 µM
same,IC50,[6]; [10],0.236 µM
same,IC50,[7]; [11],0.255 µM
same,IC50,[7]; [12],0.255 ± 0.0026 µM
same,IC50,[7]; [13],0.257 ± 0.003 µM
same,IC50,[8]; [14],6.82 µM
same,IC50,[9],3.8 ± 0.1 µM
same,melting point,,160 to 161 °C
"COc1cc(-c2nnnn2-c2ccc3c(c2)c(C=O)cn3C)cc(Cl)n1 [Compound 13, 5-(5-(2-chloro-6-methoxypyridin-4-yl)-1H-tetrazol-1-yl)-1-methyl-1H-indole-3-carbaldehyde]",solubility at 72 h,[1],0.0453 ± 0.0004 mg/mL
same,IC50,[2]; 72 h after drug exposure,0.057 µM
same,IC50,"[2]; mean ± SD, Table S1",0.0575 ± 0.0003 µM
same,IC50,[3]; 72 h after drug exposure,0.065 µM
same,IC50,"[3]; mean ± SD, Table S1",0.0654 ± 0.0005 µM
same,IC50,U87 MG (glioblastoma); 72 h after drug exposure,0.055 µM
same,IC50,"U87 MG (glioblastoma); mean ± SD, Table S1",0.0554 ± 0.0004 µM
same,IC50,"[4]; 72 h, 72 h after drug exposure",0.054 µM
same,IC50,"[4]; mean ± SD, Table S1",0.0541 ± 0.0003 µM
same,IC50,[5]; 72 h after drug exposure,0.055 µM
same,IC50,"[5]; mean ± SD, Table S1",0.0553 ± 0.0002 µM
same,IC50,[6]; [10],0.05 µM
same,IC50,"[6]; HCT-8, mean ± SD, Table S1",0.0501 ± 0.0004 µM
same,IC50,[7]; [11],0.064 µM
same,IC50,[7]; [12],0.0642 ± 0.0004 µM
same,IC50,[7]; [13],0.0673 ± 0.0006 µM
same,IC50,[8]; [14],3.72 µM
same,IC50,[9],2.8 ± 0.2 µM
same,melting point,,214 to 215 °C
"CSc1cc(-c2nnnn2-c2ccc3c(c2)c(C=O)cn3C)cc(SC)n1 [Compound 15, 5-(5-(2,6-bis(methylsulfanyl)pyridin-4-yl)-1H-tetrazol-1-yl)-1-methyl-1H-indole-3-carbaldehyde]",solubility at 72 h,[1],0.0412 ± 0.0004 mg/mL
same,IC50,[2]; 72 h after drug exposure,0.144 µM
same,IC50,"[2]; mean ± SD, Table S1",0.144 ± 0.0017 µM
same,IC50,[3]; 72 h after drug exposure,0.13 µM
same,IC50,"[3]; mean ± SD, Table S1",0.1301 ± 0.0011 µM
same,IC50,U87 MG (glioblastoma); 72 h after drug exposure,0.115 µM
same,IC50,"U87 MG (glioblastoma); mean ± SD, Table S1",0.115 ± 0.0014 µM
same,IC50,"[4]; 72 h, 72 h after drug exposure",0.122 µM
same,IC50,"[4]; mean ± SD, Table S1",0.1225 ± 0.0012 µM
same,IC50,[5]; 72 h after drug exposure,0.137 µM
same,IC50,"[5]; mean ± SD, Table S1",0.137 ± 0.0015 µM
same,IC50,[6]; [10],0.141 µM
same,IC50,"[6]; HCT-8, mean ± SD, Table S1",0.1413 ± 0.001 µM
same,IC50,[7]; [11],0.244 µM
same,IC50,[7]; [12],0.2441 ± 0.0018 µM
same,IC50,[7]; [13],0.242 ± 0.0025 µM
same,IC50,[8]; [14],6.48 µM
same,IC50,[9],3.5 ± 0.2 µM
same,melting point,,207 to 208 °C
"CSc1cc(-c2nnnn2-c2ccc3c(c2)c(C#N)cn3C)cc(Cl)n1 [Compound 22, 5-(5-(2-chloro-6-(methylsulfanyl)pyridin-4-yl)-1H-tetrazol-1-yl)-1-methyl-1H-indole-3-carbonitrile]",solubility at 72 h,[1],0.0312 ± 0.0003 mg/mL
same,IC50,[2]; 72 h after drug exposure,0.341 µM
same,IC50,"[2]; mean ± SD, Table S1",0.3412 ± 0.0028 µM
same,IC50,[3]; 72 h after drug exposure,0.329 µM
same,IC50,U87 MG (glioblastoma); 72 h after drug exposure,0.312 µM
same,IC50,"U87 MG (glioblastoma); mean ± SD, Table S1",0.3123 ± 0.0026 µM
same,IC50,"[4]; 72 h, 72 h after drug exposure",0.359 µM
same,IC50,"[4]; mean ± SD, Table S1",0.359 ± 0.0039 µM
same,IC50,[5]; 72 h after drug exposure,0.327 µM
same,IC50,"[5]; mean ± SD, Table S1",0.3273 ± 0.0028 µM
same,IC50,[6]; [10],0.335 µM
same,IC50,"[6]; HCT-8, mean ± SD, Table S1",0.3353 ± 0.0033 µM
same,IC50,[7]; [11],0.355 µM
same,IC50,[7]; [12],0.355 ± 0.0039 µM
same,IC50,[7]; [13],0.357 ± 0.0039 µM
same,IC50,[8]; [14],> 10 µM
same,IC50,[8]; [15],> 10 µM
same,IC50,[9],4.6 ± 0.2 µM
"CSc1cc(-c2nnnn2-c2ccc3c(c2)c(C#N)cn3C)cc(SC)n1 [Compound 23, 5-(5-(2,6-bis(methylsulfanyl)pyridin-4-yl)-1H-tetrazol-1-yl)-1-methyl-1H-indole-3-carbonitrile]",solubility at 72 h,[1],0.0341 ± 0.0003 mg/mL
same,IC50,[2]; 72 h after drug exposure,0.841 µM
same,IC50,"[2]; mean ± SD, Table S1",0.8411 ± 0.0061 µM
same,IC50,[3]; 72 h after drug exposure,0.963 µM
same,IC50,"[3]; mean ± SD, Table S1",0.9633 ± 0.0071 µM
same,IC50,U87 MG (glioblastoma); 72 h after drug exposure,0.831 µM
same,IC50,"U87 MG (glioblastoma); mean ± SD, Table S1",0.8312 ± 0.0048 µM
same,IC50,"[4]; 72 h, 72 h after drug exposure",0.865 µM
same,IC50,"[4]; mean ± SD, Table S1",0.8652 ± 0.0072 µM
same,IC50,[5]; 72 h after drug exposure,0.877 µM
same,IC50,"[5]; mean ± SD, Table S1",0.8772 ± 0.0059 µM
same,IC50,[6]; [10],0.822 µM
same,IC50,"[6]; HCT-8, mean ± SD, Table S1",0.8223 ± 0.0067 µM
same,IC50,[7]; [11],0.929 µM
same,IC50,[7]; [12],0.9291 ± 0.0078 µM
same,IC50,[7]; [13],0.9275 ± 0.0074 µM
same,IC50,[8]; [14],> 10 µM
same,IC50,[8]; [15],> 10 µM
same,IC50,[9],7.9 ± 0.2 µM
